Data published in paper PMC9289672, “Optimization of Antibacterial Activity in Tibetan Swine α-Helix Peptide TP by Site-Directed Mutagenesis” (Frontiers in Microbiology, 2022).
Where two headings read alike, the source gives them in different places. Where no end group is shown, it is not given here.

Tests used:
[1] = tested on: Gram-negative bacteria; experiment: Geometric mean of MIC and therapeutic index; type: cell-based; conditions: MHC/GM; 128 μm used when 50% hemolysis not observed at 128 μm
Protocol: (§1) The bacteria were cultured overnight in the MHB medium and transferred to the new MHB the next day until the bacteria reached the exponential growth stage. The bacteria were diluted with MHB to 2 × 10^5 CFU/ml. About 50 μl of polypeptide and equal volume of bacterial suspension was added to a 96-well plate to give the final concentration of polypeptide between 1 and 128 μm. The last two columns are negative (MHB only) and positive (bacterial and MHB) controls and incubated at 37°C for 18–24 h. Optical density was measured at an absorbance wavelength of 492 nm using a microplate reader (Tecan GENios F129004, Tecan, Austria). At least three independent measurements were taken. Each trial was conducted two times in parallel. A total of three independent assays were carried out.
(§2) Trp is a hydrophobic amino acid with aromatic side chains. It is a special amino acid in peptide design. Previous studies have pointed out that introducing amino acids will also bring toxicity while improving activity. […] For further evaluating the cell selectivity of the peptides, we also calculated the SI which defined as the ratio of MHC to the geometric mean (GM) (Dufourc, [2008]).

[2] = tested on: Gram-positive bacteria; experiment: Geometric mean of MIC and therapeutic index; type: cell-based; conditions: MHC/GM; 128 μm used when 50% hemolysis not observed at 128 μm
Protocol: as §1, §2

[3] = tested on: Methicillin-resistant Staphylococcus aureus (MRSA) 43300; conditions: Methicillin-resistant 43300
Description: (§3) The bacteria strains Escherichia coli ATCC 25922, Escherichia coli UB1005, Salmonella typhimurium ATCC 14028, Salmonella typhimurium C7731, Pseudomonas aeruginosa ATCC 27853, Pseudomonas aeruginosa PAO1, Staphylococcus aureus ATCC 29213, Staphylococcus aureus ATCC 25923, Methicillin-resistant Staphylococcus aureus (MRSA) 43300, Enterococcus faecalis ATCC 29212, and Staphylococcus epidermidis ATCC 12228 were obtained from the College of Veterinary Medicine, Northeast Agricultural University (Harbin, China).
as §1

[4] = tested on: Staphylococcus aureus ATCC 25923
Description: as §3, §1

[5] = tested on: Staphylococcus epidermidis ATCC 12228
Description: as §3, §1

[6] = tested on: Escherichia coli UB1005; conditions: MHB, bacteria diluted to 2 × 10^5 CFU/ml, peptide 1-128 μm, 37°C 18-24 h, OD 492 nm; three independent assays, two in parallel
Description: as §3, §1

[7] = tested on: Pseudomonas aeruginosa ATCC 27853
Description: as §3, §1

[8] = tested on: Staphylococcus aureus ATCC 29213
Description: as §3, §1

[9] = tested on: Escherichia coli ATCC 25922
Description: as §3, §1

[10] = tested on: Salmonella typhimurium ATCC 14028
Description: as §3, §1

[11] = tested on: Pseudomonas aeruginosa PAO1
Description: as §3, §1

[12] = tested on: Salmonella typhimurium C7731; conditions: MHB, bacteria diluted to 2 × 10^5 CFU/ml, peptide 1-128 μm, 37°C 18-24 h, OD 492 nm; three independent assays, two in parallel
Description: as §3, §1

[13] = tested on: Enterococcus faecalis ATCC 29212
Description: as §3, §1

[14] = tested on: hRBCs (human red blood cells); experiment: Hemolytic activity; conditions: three independent assays, two in parallel
Protocol: (§5) The cytotoxicity of each peptide was assessed with IPEC-J12 and HEK 293T cells. […] Each trial was conducted two times in parallel. A total of three independent assays were carried out.

[15] = tested on: all strains in Table 2; experiment: Geometric mean of MIC and therapeutic index; type: cell-based; conditions: MHC/GM; 128 μm used when 50% hemolysis not observed at 128 μm
Protocol: as §1
Trp is a hydrophobic amino acid with aromatic side chains. It is a special amino acid in peptide design. Previous studies have pointed out that introducing amino acids will also bring toxicity while improving activity. Therefore, at the beginning of the design, we predicted that selecting Trp as hydrophobic amino acid to substitute H-H position would bring certain toxicity to the peptide. Thus, as expected, the introduction of Trp increases the activity and toxicity of these peptides. […] Meanwhile, the virulence of TP(i+4) 1&2&5&6 and TP(i+4) 1&2&6&7 was lower than that of TP(i+4) 1&2&5&7. We infer that the location of hydrophobic centers can effectively reduce peptide toxicity by Trp substitution. For further evaluating the cell selectivity of the peptides, we also calculated the SI which defined as the ratio of MHC to the geometric mean (GM) (Dufourc, [2008]).

[16] = tested on: E. coli 25922; type: cell-based, Escherichia coli; conditions: 25922, 4 h
Protocol: (§4) The salt and serum stability of polypeptides were determined by improved MIC method (Lv et al., [2014]). Peptides were incubated with BSA containing different final concentrations of salt ions (150 mM NaCl, 4.5 mM KCl, 6 μm NH4Cl, 8 μm ZnCl2, 1 mM MgCl2, 2 mM CaCl2, and 4 μm FeCl3) (Wang et al., [2018]). To determine the stability of the peptide in serum, peptide was incubated with different proportions of serum (50%, 100%) at 37°C for 4 h. The following steps are the same as those for antimicrobial activity. Each trial was conducted two times in parallel. A total of three independent assays were carried out.

[17] = tested on: S. aureus 29213; type: cell-based, Staphylococcus aureus; conditions: 29213, 4 h
Protocol: as §4

[18] = tested on: hRBCs (human red blood cells)
Protocol: as §5

[19] = tested on: IPEC-J2 and HEK 293T cells
Protocol: as §5

Row | Substance | Therapeutic index (TI), Gram-negative bacteria [1] | Therapeutic index (TI), Gram-positive bacteria [2] | MIC, S. aureus 43300 [3] | MIC, S. aureus 25923 [4] | MIC, S. epidermidis 12228 [5] | MIC, E. coli UB1005 [6] | MIC, P. aeruginosa 27853 [7] | MIC, S. aureus 29213 [8] | MIC, E. coli 25922 [9] | MIC, S. typhimurium 14028 [10] | MIC, P. aeruginosa PAO1 [11] | MIC, S. typhimurium 7731 [12] | MIC, E. faecalis 29212 [13] | MHC (concentration of peptide that causes hemolysis of 50% of human red blood cells) [14] | Therapeutic index (TI) / selectivity index (SI), All [15] | also measured
1 | AKVVNKLTKGVAKLLK-NH2 [TP(i+4) 2&3] | 2.00 | 1.00 | >128 µM | >128 µM | >128 µM | 8 µM | 128 µM | >128 µM | 32 µM | 128 µM | 128 µM | 128 µM | >128 µM | >128 µM | 1.41 | 
2 | ASVVKKLTKGVAKLLK-NH2 [TP(i+4) 1&2] | 12.70 | 1.00 | >128 µM | >128 µM | >128 µM | 4 µM | 16 µM | >128 µM | 4 µM | 32 µM | 8 µM | 16 µM | >128 µM |  | 3.56 | MIC after incubation with 100% serum [16]: 32 µM; MIC in the presence of Ca2+ [16]: >64 µM; MIC in the presence of Fe3+ [16]: 8 µM; MIC in the presence of K+ [16]: 8 µM; MIC in the presence of Mg2+ [16]: 32 µM; MIC in the presence of NH4+ [16]: 8 µM; MIC in the presence of Na+ [16]: >64 µM; MIC in the presence of Zn2+ [16]: 2 µM; MIC, Control [16]: 4 µM; MIC after incubation with 100% serum [17]: >64 µM; MIC in the presence of Ca2+ [17]: >64 µM; MIC in the presence of Fe3+ [17]: >64 µM; MIC in the presence of K+ [17]: >64 µM; MIC in the presence of Mg2+ [17]: >64 µM; MIC in the presence of NH4+ [17]: >64 µM; MIC in the presence of Na+ [17]: >64 µM; MIC in the presence of Zn2+ [17]: >64 µM; MIC, Control [17]: >64 µM; MHC (concentration of peptide that causes hemolysis of 50% of human red blood cells) [18]: >128 µM
3 | ASVVKKWTKGWAKLLK-NH2 [TP(i+4) 1&2&6] | 10.08 | 1.50 | 64 µM | 128 µM | 64 µM | 8 µM | 32 µM | 64 µM | 4 µM | 16 µM | 8 µM | 32 µM | 128 µM | >128 µM | 3.89 | cell viability [19]: ~ 50%
4 | ASVVKKWWKGWWKLLK-NH2 [TP(i+4) 1&2&5&6] | 25.40 | 6.96 | 8 µM | 16 µM | 8 µM | 2 µM | 4 µM | 8 µM | 1 µM | 2 µM | 4 µM | 4 µM | 8 µM | 64.00 µM | 13.30 | 
